The results in this text go back to patent publication US10716750B2, “Topical ophthalmic formulations of endothelin receptor antagonists” (Retinset, S.L., priority 2015, dated 2020).

“Also recorded” adds a separate entry of the source.

For assay [1], the system named is diabetic mice (db/db). Briefly: Immunohistochemical evaluation of apoptosis (TUNEL staining of retina sections) after topical ocular treatment. It counts as in vivo. As to the method: (§1) In tests 12 male db/db mice aged 10 weeks (Harlan Laboratories, Inc.) were used, and were divided into two groups: 6 of these mice were treated with a formulation of the present invention, and 6 mice with a sodium chloride solution, as described below. 6 non-diabetic (db/+) mice matched by age were also used as the control group.
(§2) On day 15, approximately 1 hour before necropsy, a drop of formulation of the present invention or vehicle was instilled in the eyes of the animals. Following euthanasia, eyes were enucleated. The neuroretina from one of the eyes was extracted, frozen in liquid nitrogen and stored at a temperature of −80° C. The other eye was fixed with a solution of 4% paraformaldehyde, processed routinely, and embedded in paraffin blocks.
Immunohistochemical analysis for apoptosis assessment was carried out TUNEL (Terminal Transferase dUTP Nick-End Labeling) staining using the DeadEnd Fluorometric TUNEL System Kit (Promega, Madison, Wis., USA).
Cryosections of retina were permeabilized by incubation on ice for 2 min with 0.1% Triton X-100 and 0.1% sodium citrate freshly prepared solution. The secondary antibody was Alexa 488 goat anti-rabbit (Invitrogen, San Diego Calif., USA). For evaluation by Laser Scanning Confocal microscopy, the excitation wavelength was 488 nm and detection in the range from 515 to 565 nm, which corresponds to green colour.
The evaluation was carried out in the retina of each animal and a minimum of 10 sections per retina.

In assay [2] the test system is diabetic mice (db/db). Briefly: Determination of glial activation (GFAP staining score, confocal microscopy of retina sections) after topical ocular treatment. It is filed as in vivo. The procedure: as §1, §2
Glial activation was evaluated by Laser Scanning Confocal microscopy using specific antibodies against GFAP (glial fibrillary acidic protein). Retina sections were fixed in acidic methanol at −20° C. for 2 min, followed by three washes with phosphate buffer (PBS) for 5 min each. Retina sections were permeabilized with a tris buffer (TBS) with 0.025% Triton® X-100 and incubated for 2 hours at room temperature in a blocker solution composed of 1% BSA (serum albumin bovine) and 10% goat serum in 10% PBS. Retina sections were incubated with rabbit anti-GFAP antibody (Abcam Ltd, Cambridge, UK; 1:500 dilution prepared in blocking solution) overnight at 4° C. in a humid atmosphere. After three washes with PBS solution, 5 minutes each, the retina sections were incubated with the secondary antibody Alexa 488 goat anti-rabbit (Invitrogen, San Diego Calif., USA) at a 1:200 dilution prepared in blocking solution. Retina sections were washed three times with PBS, counterstained with Hoechst, mounted with Mounting Medium Fluorescence (Prolong, Invitrogen) and mounted with a coverslip. Comparative digital images from samples were recorded with FluoView FV 1000 Laser Scanning Confocal microscope Olympus using identical settings for brightness and contrast.
A scoring system based on the extent of GFAP staining described in Anderson et al., Glial and endothelial blood-retinal barrier responses to amyloid-β in the neural retina of the rat, Olin. Ophthalmol., 2008, 2, 801-816, was used in order to assess the degree of glial activation. This scoring system was as follows: • Score 1: Müller cell endfeet/ ganglion retinal cell layer (GCL) only; • Score 2: Müller cell endfeet region/GCL plus a few proximal processes; • Score 3: Müller cell endfeet plus many processes, but not extending to the outer nuclear layer (ONL) of the retina; • Score 4: Müller cell endfeet plus processes throughout with some in the ONL; • Score 5: Müller cell endfeet plus lots of dark processes from GCL to outer margin of ONL.
The score was assessed on the retina of each animal and a minimum of 10 sections per retina.

Take `COc1ccccc1Oc1c(NS(=O)(=O)c2ccc(C(C)(C)C)cc2)nc(-c2ncccn2)nc1OCCO` [Bosentan]: in the assay with diabetic mice (db/db) [1] (14 days, twice per day, versus control (db/+) and vehicle-treated diabetic animals), the “apoptosis in all retinal layers (in words)” value was “reduced apoptosis”. In addition, the “TUNEL staining-positive cell percentage, GCL, mean (standard deviation)” value with diabetic mice (db/db) [1] (topical ocular, twice daily for 14 days, ganglion cell layer, p <0.001 vs vehicle) was 1.42 (0.38) %. In addition, the “TUNEL staining-positive cell percentage, INL, mean (standard deviation)” value with diabetic mice (db/db) [1] (topical ocular, twice daily for 14 days, inner nuclear layer, p <0.001 vs vehicle) is 0.36 (0.31) %. Further, the “TUNEL staining-positive cell percentage, ONL, mean (standard deviation)” value in the assay with diabetic mice (db/db) [1] (topical ocular, twice daily for 14 days, outer nuclear layer, p <0.001 vs vehicle) is given as 0 (0.07) %. Moreover, the “glial activation / reactive gliosis (in words)” value with diabetic mice (db/db) [2] (14 days, twice per day, versus vehicle-treated diabetic animals) was “significant decrease of reactive gliosis; also recorded: less glial activation”. For the same compound, the “degree of glial activation (percentage for each score of GFAP expression), Score 1” value with diabetic mice (db/db) [2] (one 5 μl drop of formulation of Example 1 per eye, twice daily for 14 days, Score 1: Müller cell endfeet/GCL only) turned out to be 85%. For the same compound, the “degree of glial activation (percentage for each score of GFAP expression), Score 2” value in the assay on diabetic mice (db/db) [2] (one 5 μl drop of formulation of Example 1 per eye, twice daily for 14 days, Score 2: endfeet region/GCL plus a few proximal processes) came to 15%. The “degree of glial activation (percentage for each score of GFAP expression), Score 3” value with diabetic mice (db/db) [2] (one 5 μl drop of formulation of Example 1 per eye, twice daily for 14 days, Score 3: endfeet plus many processes, not extending to ONL) amounted to 0%. The “degree of glial activation (percentage for each score of GFAP expression), Score 4” value with diabetic mice (db/db) [2] (one 5 μl drop of formulation of Example 1 per eye, twice daily for 14 days, Score 4: endfeet plus processes throughout with some in the ONL) worked out at 0%. Also, in the assay on diabetic mice (db/db) [2] (one 5 μl drop of formulation of Example 1 per eye, twice daily for 14 days, Score 5: endfeet plus lots of dark processes from GCL to outer margin of ONL), the “degree of glial activation (percentage for each score of GFAP expression), Score 5” value was found to be 0%. For the same compound, the “share with GFAP score less than 2” value with diabetic mice (db/db) [2] (two weeks of administration) is 85%. In the assay on diabetic mice (db/db) [2] (two weeks of administration, all cases, score scale 1-5), the “GFAP score of the treated animals” value is under 3.
